The results in this text go back to patent publication US12558358B2 (UNIVERZITA PALACKEHO V OLOMOUCI, priority 2019, dated 2026).

The test system of this experiment is U2OS cells transduced by transcriptional circadian reporter mBmal1-Luc. Nature of the experiment: Circadian rhythm period, U2OS cells with Bmal1-Luc reporter (Example 1). It is filed as cell-based, human. Particulars: luminescence 144 hours, cosinor analysis, FIG. 1. Here is the method: Human osteosarcoma U2OS cells were grown in standard DMEM with 10% fetal calf serum. U2OS cells were transduced with lentiviral particles containing the reporter pLV6-Bmal1-Luc (S. Brown, Addgene plasmid #68833) and selected under Blasticidin. The cell line was clonally expanded and a single monoclonal cell line was used for further experiments. Cells were cultured in a 384-well plate in growth medium to 90+% confluence. Test compound or vehicle (DMSO) was applied to recording medium with 100 U/ml penicillin, 100 μg/ml streptomycin, 1× GlutaMAX (ThermoFisher, Waltham, MA, USA), 10% fetal calf serum (Sigma) and 0.1 mM Luciferin-EF (Promega Madison, WI, USA). Luminescence was recorded every hour for an additional 144 hours in Luminoskan Ascent (ThermoFisher). Circadian rhythm analysis was performed using cosinor analysis.

Regarding `c1coc(CNc2ncnc3nc[nH]c23)c1` [N-(furan-2-ylmethyl)-7H-purin-6-amine], the circadian rhythm period result is “extends the circadian rhythm period”.
